This note sets out measurements from US8772250B2, “Compositions and methods for treating ischemia and ischemia-reperfusion injury” (Ischemix, LLC, priority 2010, dated 2014).

One data set has as its system Akt. The data set can be described thus: Immunohistochemistry assay for phosphorylated Akt in H9c2 cells. In kind it is cell-based, rat. Particulars: 50 μM, 3 hours, vs vehicle. Here is the method:
The ability of RLip-EA-OH to increase phosphorylated Akt was assayed in H9c2 cells by immunocytochemistry followed by visualization using microscopy. H9c2 cells are a cell line derived from rat cardiac myocytes and can be manipulated to increase or decrease the level of phosphoryated Akt. Cells were inoculated onto culture plates and allowed to adhere to the bottom, treated, fixed, and permeabilized. Following permeabilization, cells were treated initially with specific phospho-Akt antibodies followed by fluorescent secondary antibodies to quantify the amount of bound primary antibody.
H9c2 cells were plated in 12 well cell culture treated plates at 70% confluence. Cells were incubated overnight to allow cell attachment. The media was changed to low serum (0.5%, fetal bovine serum [FBS]) and cells incubated for another 48 hours. Cells were treated for 3 hours with either vehicle, RLip-EA-OH (50 μM), or co-treatment with LY294002 (25 μM), fixed with 3.7% formaldehyde in phosphate buffered saline and permeabilized with 0.5% Triton X-100 in phosphate buffered saline. After permeabilization, the cells were treated with antibody specific for Akt phosphorylated at threonine-308, followed by treatment with a fluorescent labeled secondary antibody.

Data set [1] relates to myocardial ischemia-reperfusion injury. In words: Rat model of myocardial I/R injury (MI/AR ratio). In kind it is in vivo. Particulars: for % Reduction in MI/AR Compared to Vehicle: rat IV. The text has this: A rat model of myocardial I/R injury was used as an in vivo screen to determine if certain lipoic acid derivative compounds are cardio-protective (e.g., against mycoardial ischemia-reperfusion injury). This model is analogous to the ischemia-reperfusion injury observed in cardiac patients following coronary occlusions and cardiac surgery procedures, such as coronary artery bypass grafting (CABG) (Matsui, T., Tao, J., del Monte, F., Lee, K.-H. et al., Akt Activation Preserves Cardiac Function and Prevents Injury After Transient Cardiac Ischemia In vivo, Circulation 2001, 104:330).
The circumflex branch of the left coronary artery was ligated temporarily to induce regional ischemia in the left ventricular mass, followed by the injection of fluorescent microspheres to delineate the ischemic region. The animals were sacrificed about 24 hours after reperfusion and the hearts were excised, sectioned and stained with triphenyltetrazolium. The direct impact of the pharmacologic intervention was determined by measuring the myocardial infarct area (MI), the ischemic area at risk (AR) and the left ventricular area (LV). The reduction of MI over the AR (MI/AR ratio) was used as the primary measure of drug efficacy relative to vehicle controls.
Male Sprague-Dawley rats between 300 and 350 gm were used for these experiments. Anesthesia was induced with 3-4% isoflurane in an induction chamber. After induction, anesthesia was maintained at a surgical plane with 1.5-2.0% isoflurane, administered by a Rodent Ventilator through a 16-gauge angiocatheter introduced orally into the trachea. The ventilator was set at 2.5 cc at a rate of 60-65 breaths per minute to maintain ventilation during surgery. The core temperature of the animal was monitored and maintained at 37° C. using a rectal probe and a heating lamp attached to a temperature controller.
A left anterior thoracotomy was performed and the heart was exposed using a vertical pericardotomy. The circumflex branch of the left coronary artery (LCx) was ligated approximately 4 mm from the aorta using a cardiovascular 7.0 monofilament suture on an 11 mm needle to induce ischemia in the left ventricle.
Fluorescent microspheres (300 μL) were injected into the left ventricular cavity 10-20 minutes after the ligation to delineate the ischemic area. The suture was removed 30 minutes after ligation to reperfuse the ischemic area and the ischemic area was checked for reperfusion.
The chest was then closed in layers using absorbable suture (Dexon 5-0) for the muscle layers and monofilament Nylon 5-0 suture was used to close the cutaneous layer. The animals were allowed to recover, then were returned to the colony.
Twenty-four hours after reperfusion, anesthesia was induced using ketamine hydrochloride and the chest was opened. The animals were sacrificed with 15% potassium chloride aqueous solution (w/v) injected into the LV cavity to arrest the heart in diastole. The heart was excised distal to the aortic valve and washed with saline to remove the blood. Sagittal slices of the heart were obtained between the base of the ventricle and the apex. Five slices of heart tissue were obtained, each 2 mm thick. The slices were immersed in a 1% 2,3,5-triphenyl-2H-tetrazolium chloride (TTC) in saline solution and then stored in the dark for 30 minutes to stain.
Images of the slices were obtained under bright field (to observe the TTC staining) and under fluorescence (to observe the microspheres). The area at risk was determined by the absence of microspheres and the infarct area was determined by the absence of TTC staining.
In vivo experiments employing a rat model of myocardial I/R injury were performed as described in Example 8. Catheterized (jugular vein) rats were used for intravenous dose administration at time points prior to and/or including 0.25 h.

Data set [2] is described as follows: Pharmacokinetic evaluation in rats. Format: in vivo. Particulars: both sexes, rat. How it is done:
To evaluate systemic exposure to RLip-EA-OH, groups of rats were given single intravenous infusion doses of vehicle (2/sex) or RLip-EA-OH at the same dose levels of 30, 100, or 200 mg/kg (6/sex/group). For the vehicle-treated group, blood samples were collected from all rats at pre-dose and at 30 minutes (+2 minutes) post-dose only. For RLip-EA-OH-treated groups, blood samples were collected from three rats/sex/group at 10 minutes, 30 minutes, 45 minutes and 1, 2, 3, and 4 hours (±2 minutes) after dosing.
Administration was by IV infusion into a surgically-placed catheter in the femoral vein using a syringe pump at a rate of injection no greater than 0.2 mL/min. The dose volume for each animal was based on the most recent body weight measurement and doses were rounded to the nearest 0.1 mL. […]
Samples were placed in tubes containing K3EDTA and stored on ice until centrifuged, under refrigeration, for at least ten minutes at 3000 rpm. After centrifugation, plasma was removed and stored frozen at or below minus 70° C. until shipped to BASi in West Lafayette, Ind. for analysis.
Plasma RLip-EA-OH concentrations were measured at BASi in West Lafayette, Ind., using a validated LC/MS/MS method with positive turbo ion spray, in the multiple reaction-monitoring mode. The quantifiable range for the assay was 0.05 to 50 μg/mL and QC samples were included at 0.15, 10 and 37.5 μg/mL. Toxicokinetic analysis was performed using WinNonlin version 5.1 by calculation of standard parameters.

Molecules are shown by their SMILES. Read-outs that look alike come from different tables or passages of the source. Marks after values point to notes of the source that are not given here.

As for `C[C@H](NC(=O)[C@H](CCC(=O)O)NC(=O)CCCC[C@@H]1CCSS1)C(=O)O` [RLip-EA-OH, N-(R)-lipoyl-L-glutamyl-L- alanine], the “fluorescence intensity (Akt phosphorylated at threonine-308)” value in the data set with Akt is recorded as “much brighter”. Moreover, the “% Reduction in MI/AR Compared to Vehicle” value in data set [1] (Entry 2b: 3 mg/kg (1 h infusion) at −1 h) is 12%; in data set [1] (Entry 5: 15 mg/kg at −0.25 h) it was 30* %; in data set [1] (Entry 7: 10 mg/kg at −3 h), 33* %; in data set [1] (Entry 12: 10 and 10 mg/kg at −3 and −0.25 h), 43* %; in data set [1] (Entry 13: 20 and 10 mg/kg at −3 and −0.25 h), 38* %; in data set [1] (Entry 16: 10 and 10 and 10 mg/kg at −3 and −0.25 h and at reperfusion) it was 15%. Moreover, the “% Reduction in MI/AR compared to vehicle controls” value in data set [1] (rat, Table 11: 10 mg/kg at −3 h) was 29%. Besides, in data set [1] (rat, multiple dosing 10 mg/kg at −3 h and −0.25 h), the “reduction of MI (meta-analysis)” value was 43%. The molecule further yielded an AUC(0-inf) in data set [2] (plasma, 30 mg/kg IV infusion) of about 7000 ng·h/mL. In addition, the Cmax in data set [2] (plasma, 30 mg/kg IV infusion) worked out at 20000 ng/mL. Moreover, in data set [2] (plasma, 30 mg/kg IV infusion), the clearance is 75 mL/min/kg. Moreover, the Vd in data set [2] (plasma, 30 mg/kg IV infusion, read-out: Vss) came to 1.2 L/kg. Besides, the half-life in data set [2] (plasma, 30 mg/kg IV infusion, read-out: t½ (converted)) is 9 min; in data set [2] (serum, intravenous, rats, dose of 30 mg/kg, read-out: serum half-life) it was about 9 min.

The AUC(0-inf) is the area under the concentration-time curve extrapolated to infinity. Low values mean low exposure, high ones high exposure. One may read the Cmax as the maximum level reached in the sampled fluid or tissue. What is called clearance is the volume of plasma or blood freed of the substance per unit of time. Low readings indicate a low capacity for elimination, high ones a high capacity for elimination.
